# Laboratory results reported in publication PMC7004140, “In vitro hepatotoxicity of Petasites hybridus extract (Ze 339) depends on the concentration, the cytochrome activity of the cell system, and the species used” (Phytotherapy Research, 2019).
# How the values were obtained:
# H-4-II-E cells = assay: WST-1 metabolic activity (cytotoxicity) in H-4-II-E cells; type: cell-based, rat (Rattus norvegicus); details: Rattus norvegicus, H4IIE, single constituents, 4 hr
# Experimental: HepG2 and H‐4‐II‐E cells were differentiated for 24 hr. HepaRG cells were directly seeded in precoated 96‐well microtiter plates and were incubated in William's medium with general purpose supplements according to manufacturer's manual until adherence. All cells were treated with Ze 339 (up to 100 μg/ml) or petasin, isopetasin, neopetasin, petasol, isopetasol, petasin mixture, fatty acid mixture, and reconstituted extracts (up to 250 μM) for 4 hr.
# In the three cell lines, cytotoxicity was defined as a decrease in metabolic activity of ≥20% in the WST‐1 assay. At the end of the experiment, 10 μl WST‐1 reagent was added to each well. Plates were then incubated for 2 hr to allow for the reduction of WST‐1 reagent. Absorbance was measured using a microplate absorbance reader (Infinite M 200, Tecan Trading Ltd., Switzerland) at 450 nm, reference wavelength of 620 nm. Due to some matrix effect, the lowest concentration (0.02 μg/ml for Ze 339 and 3.9 μM for single constituents and mixtures) of each substance tested was defined as 100% metabolic activity. Results were expressed as percentage of the control metabolic activity, and data were presented as mean values ± SEM (n = 3–6).
# Concentration‐response analysis was done using the sigmoidal Hill equation: E(t) = E0 − Emax × C(t)^N/(IC50 ^N + C(t)^N), where E is the effect at time t, E0 the effect at baseline (time = 0), IC50 the concentration yielding 50% of the maximal effect (Emax), and N denotes the sigmoidicity coefficient (Origin 2017 Software). For statistical analysis, analysis of variance with Dunnett's multicomparison test was used to correct for multiplicity of testing (IBM SPSS Statistics software, version 25, IBM Corp., USA). The level of significance was ^* p < .05, ^** p < .01 and ^*** p < .001; NS = no significance.
# [1] = Incubation without S9 fraction (solvent or cofactors only, negative controls); type: in vitro ADME; details: 20 μM, 60 min, data not shown; for metabolism with cofactors of S9 fraction only (negative control): cofactor only; for metabolism with solvent (negative control): solvent only
# Experimental: (§1) The assay was carried out in triplicate in 1.5 ml glass vials with a final concentration of 20 μM of petasin, isopetasin, and neopetasin. The incubation was performed in a 37°C warm water bath. S9 fractions were thawed slowly on ice. Four different approaches were pursued by testing: (a) petasin, neopetasin, and isopetasin before (0 min) and after 60 min incubations with S9 fraction; (b) petasin, neopetasin, and isopetasin without S9 fraction after 60 min incubation; (c) vehicle as negative controls; and (d) cofactors of S9 fraction after 60‐min incubation.
# A mixture of NADPH regeneration systems A (20‐fold) and B (100‐fold), phosphate buffer, and H2O was added, preincubated at 37°C, and shaken gently for 5 min. Afterwards, the recommended amount between 10 and 40 pmol/ml of enzyme or enzyme mixture was added according to manufacturer's instruction and incubated for further 60 min at 37°C and gently shaken. Afterwards, the reactions were stopped by addition of acetonitrile (400 μl). For the control sample, acetonitrile was added at 0 min incubation. The samples were centrifuged for 3 min at 10,000 × g. The supernatant was transferred to high‐performance liquid chromatography vials and analyzed by ultra‐performance liquid chromatography mass spectrometry (UPLC/MS). The UPLC analysis was performed with an UPLC Acquity H Class from Waters (Waters Corporation, Switzerland) including a quaternary high‐pressure gradient pump, an automatic sample injector, and a column thermostat. Chromatographic separation was achieved on an Acquity BEH C18, […], 50 × 2.1 mm column (Waters, Switzerland). The mobile phase consisted of 0.1% formic acid (A) and acetonitrile (B). The initial gradient condition was 10% (B) followed by a step to 90% (B) until 6.0 min. The column temperature was adjusted to 40°C. The flow rate was 0.5 ml/min and the injection volume 5 μl. The mass spectrometry was performed in positive electrospray mode using an ACQUITY QDa mass detector (Waters Corporation, Switzerland). The single ion recording was set to 317.2 Da.
# CYP1A2 (human) = target: T1, CYP1A2 (human) (Homo sapiens, UniProt P05177); assay: Metabolism by isolated human CYP1A2; type: in vitro ADME; details: petasins 20 μM, 60 min
# T1 construct: purchased BD Gentest (Switzerland); host or cells: baculovirus expression system
# T1 sequence (P05177 1-516): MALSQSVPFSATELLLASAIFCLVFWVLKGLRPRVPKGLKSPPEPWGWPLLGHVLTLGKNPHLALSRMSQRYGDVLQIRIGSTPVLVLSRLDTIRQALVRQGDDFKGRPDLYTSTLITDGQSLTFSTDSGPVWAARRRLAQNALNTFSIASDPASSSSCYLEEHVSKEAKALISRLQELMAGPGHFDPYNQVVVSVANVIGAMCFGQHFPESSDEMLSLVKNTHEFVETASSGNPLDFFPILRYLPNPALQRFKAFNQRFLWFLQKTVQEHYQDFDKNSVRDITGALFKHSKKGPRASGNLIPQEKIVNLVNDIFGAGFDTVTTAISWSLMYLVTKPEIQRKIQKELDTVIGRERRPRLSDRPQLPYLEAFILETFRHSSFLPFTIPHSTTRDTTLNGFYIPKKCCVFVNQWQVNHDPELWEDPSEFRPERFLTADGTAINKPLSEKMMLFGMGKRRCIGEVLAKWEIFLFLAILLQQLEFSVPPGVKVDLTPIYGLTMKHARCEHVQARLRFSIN
# Excerpt: (§2) The metabolism of petasin, isopetasin, and neopetasin was investigated using three different S9 fractions originating from three different species (isolated from rat, dog, and human liver homogenates containing cytochrome P450 isoforms) and isolated cytochromes of two different species (human and rat; rat analogues of the respective human cytochromes were used). For the expression of the different cytochromes, a baculovirus expression system was used according to supplier's manual. The S9 fractions or respectively single P450 cytochromes were used to mimic the liver metabolism by in vitro incubation.
# as §1
# (§3) A mixture of NADPH regeneration systems A (20‐fold) and B (100‐fold), phosphate buffer, and H2O was added, preincubated at 37°C, and shaken gently for 5 min. Afterwards, the recommended amount between 10 and 40 pmol/ml of enzyme or enzyme mixture was added according to manufacturer's instruction and incubated for further 60 min at 37°C and gently shaken. Afterwards, the reactions were stopped by addition of acetonitrile (400 μl). For the control sample, acetonitrile was added at 0 min incubation. The samples were centrifuged for 3 min at 10,000 × g. The supernatant was transferred to high‐performance liquid chromatography vials and analyzed by ultra‐performance liquid chromatography mass spectrometry (UPLC/MS). The UPLC analysis was performed with an UPLC Acquity H Class from Waters (Waters Corporation, Switzerland) including a quaternary high‐pressure gradient pump, an automatic sample injector, and a column thermostat. […]
# CYP2D2 (rats) = target: T2, CYP2D2 (rats) (Rattus norvegicus, UniProt P10634); assay: Metabolism by isolated rat CYP2D2; type: in vitro ADME; details: petasins 20 μM, 60 min
# T2 construct: purchased BD Gentest (Switzerland); host or cells: baculovirus expression system
# T2 sequence (P10634 1-500): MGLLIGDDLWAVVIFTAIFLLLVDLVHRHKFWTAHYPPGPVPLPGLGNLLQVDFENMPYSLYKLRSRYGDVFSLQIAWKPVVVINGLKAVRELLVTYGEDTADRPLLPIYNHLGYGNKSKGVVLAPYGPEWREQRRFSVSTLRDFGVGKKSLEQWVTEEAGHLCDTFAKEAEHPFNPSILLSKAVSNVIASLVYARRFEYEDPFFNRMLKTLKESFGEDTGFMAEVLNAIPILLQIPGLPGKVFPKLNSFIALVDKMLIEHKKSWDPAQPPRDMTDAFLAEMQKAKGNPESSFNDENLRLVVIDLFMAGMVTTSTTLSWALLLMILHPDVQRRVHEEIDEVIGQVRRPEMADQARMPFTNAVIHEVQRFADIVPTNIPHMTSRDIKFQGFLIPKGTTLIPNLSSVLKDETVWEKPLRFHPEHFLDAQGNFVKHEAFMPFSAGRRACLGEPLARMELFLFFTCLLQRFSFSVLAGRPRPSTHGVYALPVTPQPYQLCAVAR
# Excerpt: as §2, §1, §3
SMILES,EC50 (H-4-II-E cells) [µM],metabolism with cofactors of S9 fraction only (negative control) [1] [%],metabolism with solvent (negative control) [1] [%],extent of metabolism by CYP1A2 (human) (CYP1A2 (human)) [%],extent of metabolism by CYP2D2 (rat) (CYP2D2 (rats)) [%]
C=C(C)[C@H]1C[C@@]2(C)C(=CC1=O)CC[C@@H](OC(=O)/C(C)=C\C)[C@@H]2C [neopetasin],15.8,< 1,< 1,< 1,36
C/C=C(/C)C(=O)O[C@@H]1CCC2=CC(=O)C(=C(C)C)C[C@]2(C)[C@H]1C [isopetasin],110,< 1,< 1,21,7
C=C(C)[C@@H]1C[C@@]2(C)C(=CC1=O)CC[C@@H](OC(=O)/C(C)=C\C)[C@@H]2C [petasin],132,10,< 1,4,37
